{"source": "ChEMBL document CHEMBL1201862", "about": "“PubChem BioAssay data set” (2004)", "key": {"[1]": {"target": "Kallikrein-7 (Homo sapiens, UniProt P49862)", "sequence (P49862 whole entry)": "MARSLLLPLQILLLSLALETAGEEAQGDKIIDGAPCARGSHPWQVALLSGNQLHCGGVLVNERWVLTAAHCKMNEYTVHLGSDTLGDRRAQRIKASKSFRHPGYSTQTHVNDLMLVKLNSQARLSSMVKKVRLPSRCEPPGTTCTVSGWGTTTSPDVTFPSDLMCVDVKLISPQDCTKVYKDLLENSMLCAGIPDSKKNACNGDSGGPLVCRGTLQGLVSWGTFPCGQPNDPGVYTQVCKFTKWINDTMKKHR", "experiment": "Fluorescence Intensity-based biochemical primary high throughput dose response assay to identify activators of kallikrein-7 (K7) zymogen."}, "[2]": {"experiment": "P. falciparum late gametocyte killing, dose response, luminescence (AID 1117278);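 also: gametocytes exposed to compound for 24 hours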", "format": "functional, cell-based"}, "[3]": {"experiment": "Jurkat T cell cytotoxicity, dose response, cytotoxicity control for P. falciparum gametocyte viability project, luminescence (AID 1117277);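 also: potency reflects loss of cellular ATP meaning fewer viable cells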", "format": "functional, cell-based"}, "[4]": {"target": "Protein Tat (Human immunodeficiency virus type 1 group M subtype B (isolate HXB2)(HIV-1), UniProt P04608)", "sequence (P04608 whole entry)": "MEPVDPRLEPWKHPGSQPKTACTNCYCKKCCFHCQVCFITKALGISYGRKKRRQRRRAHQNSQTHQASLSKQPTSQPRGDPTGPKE", "format": "functional"}, "[5]": {"target": "NAD-dependent protein deacylase sirtuin-5, mitochondrial (Homo sapiens, UniProt Q9NXA8)", "sequence (Q9NXA8 whole entry)": "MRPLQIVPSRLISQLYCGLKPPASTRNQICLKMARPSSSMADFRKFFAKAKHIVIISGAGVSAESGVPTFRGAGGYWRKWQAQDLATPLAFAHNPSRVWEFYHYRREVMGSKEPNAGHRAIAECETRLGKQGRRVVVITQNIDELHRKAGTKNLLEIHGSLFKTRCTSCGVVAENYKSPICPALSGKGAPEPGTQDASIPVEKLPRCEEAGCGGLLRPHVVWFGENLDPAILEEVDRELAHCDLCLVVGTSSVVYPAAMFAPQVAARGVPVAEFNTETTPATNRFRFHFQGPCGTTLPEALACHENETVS", "experiment": "SIRT5 desuccinylase inhibitors, dose response, biochemical, fluorescence imaging, cherry-pick, set 5 (AID 720591);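 also: desuccinylation of succinyl peptide AMC substrate read as fluorescence after trypsin release; potency of inhibitors that lower fluorescence and may act on trypsin instead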"}, "[6]": {"target": "Transthyretin (Homo sapiens, UniProt P02766)", "experiment": "Luminescence-based cell-based high throughput dose response assay to identify activators of Transthyretin (TTR) transcription.", "format": "functional"}, "[7]": {"experiment": "P. falciparum Dd2 growth inhibitors, dose response, SYBR Green, cherry-picked samples (AID 1159567)", "format": "functional, cell-based"}, "[8]": {"experiment": "HepG2 cell cytotoxicity, dose response, cytotoxicity control, plate reader, dry powder samples (AID 1159569);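 also: inhibitor potency with signal falling toward the positive control level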", "format": "functional, cell-based"}, "[9]": {"experiment": "P. falciparum ATP4 D1247Y mutant growth inhibitors, dose response, NITD609-resistant line, SYBR Green, dry powder (AID 1159571);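 also: parasites synchronized at ring stage by sorbitol before testing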", "format": "functional, cell-based"}, "[10]": {"experiment": "P. falciparum 3D7-ScDHODH growth inhibitors, dose response, SYBR Green, dry powder samples (AID 1159570);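 also: parasite growth measured after 72 hours of compound exposure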", "format": "functional, cell-based"}, "[11]": {"experiment": "P. falciparum Dd2 blood-stage growth inhibition, dose response, SYBR Green fluorescence, erythrocytes, dry powder, set 2 (AID 1159574)", "format": "functional, cell-based"}, "[12]": {"experiment": "P. falciparum Dd2 growth inhibitors, dose response, SYBR Green, dry powder samples (AID 1159566);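 also: potency for growth inhibition with lower SYBR green DNA signal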", "format": "functional, cell-based"}, "[13]": {"experiment": "Concentration-dependent survival of SW480 colon cancer line, luminescence detection with CellTiter-Glo, half-maximal inhibitory concentration (AID 1117338)", "format": "functional"}, "[14]": {"experiment": "HCT116 cell viability decrease, GSK3B pretreatment – CellTiter-Glo, IC50, dose response (AID 1117339)", "format": "functional", "conditions": "HCT-116"}, "[15]": {"experiment": "cytotoxicity toward Colo320 cells – cell-based, CellTiter-Glo luminescence, IC50, dose response (AID 1117334)", "format": "functional", "conditions": "COLO 320"}, "[16]": {"experiment": "cytotoxicity toward HT-29 cells – cell-based, CellTiter-Glo luminescence, IC50, dose response (AID 1117330)", "format": "functional"}, "[17]": {"experiment": "CellTiter-Glo luminescent dose response of DLD-1 viability loss (AID 1117352)", "format": "functional"}, "[18]": {"experiment": "RKO cell viability reduction, dose response, CellTiter-Glo luminescence (AID 1117322)", "format": "functional"}, "[19]": {"experiment": "cytotoxicity toward HCT116 cells – cell-based, CellTiter-Glo luminescence, IC50, dose response (AID 1117332)", "format": "functional", "conditions": "HCT-116"}, "[20]": {"experiment": "SNU-C1 cell viability reduction, dose response, CellTiter-Glo luminescence (AID 1117323)", "format": "functional, cell-based"}}, "note": "The source made the active and inactive calls.", "data": [{"smiles": "CCNC(=O)/C(C#N)=C/c1c(N2CCN(c3ccccc3)CC2)nc2ccccn2c1=O", "values": [{"measurement": "EC50", "setting": "[1]", "result": "34800 nM (inactive)"}]}, {"smiles": "Nc1ccc(-c2cnc(-c3ccc(N)cc3)nc2)cc1", "values": [{"measurement": "IC50", "setting": "[2]", "result": "> 109000 nM (inactive)"}, {"measurement": "IC50", "setting": "[3]", "result": "> 83300 nM (inactive)"}]}, {"smiles": "COc1ccc(C2CC(=O)Oc3cc(OC)ccc32)cc1", "note": "(stereo not given)", "values": [{"measurement": "IC50", "setting": "[4]", "result": "> 100000 nM (active)"}]}, {"smiles": "O=C(O)CCNc1nc(-c2ccccc2)nc2ccccc12", "values": [{"measurement": "AC50", "setting": "[5]", "result": "5410 nM (active)"}]}, {"smiles": "Cc1ccc(/C=N/NC(=O)c2csc(C)c2)o1", "values": [{"measurement": "EC50", "setting": "[6]", "result": "> 167000 nM (inactive)"}]}, {"smiles": "COc1cccc(C#Cc2ccc([C@H]3[C@@H](CO)N4C(=O)CN(C(=O)Cc5ccccc5)C[C@H]34)cc2)c1", "values": [{"measurement": "AC50", "setting": "[7]", "result": "< 300 nM (active)"}, {"measurement": "AC50", "setting": "[8]", "result": "21100 nM (active)"}, {"measurement": "AC50", "setting": "[9]", "result": "36.3 nM (active)"}, {"measurement": "AC50", "setting": "[10]", "result": "114 nM (active)"}, {"measurement": "AC50", "setting": "[11]", "result": "19.5 nM (active)"}, {"measurement": "AC50", "setting": "[12]", "result": "30.1 nM (active)"}]}, {"smiles": "O=C(Nc1ccc(Br)cc1)c1cc(Br)c(Br)s1", "note": "[TIBROFAN]", "values": [{"measurement": "IC50", "setting": "[13]", "result": "123 nM (active)"}, {"measurement": "IC50", "setting": "[14]", "result": "342 nM (active)"}, {"measurement": "IC50", "setting": "[15]", "result": "18 nM (active)"}, {"measurement": "IC50", "setting": "[16]", "result": "520 nM (active)"}, {"measurement": "IC50", "setting": "[17]", "result": "335 nM (active)"}, {"measurement": "IC50", "setting": "[18]", "result": "431 nM (active)"}, {"measurement": "IC50", "setting": "[19]", "result": "541 nM (active)"}, {"measurement": "IC50", "setting": "[20]", "result": "1100 nM (active)"}]}]}
